The test system of the test is nude mice, LOX melanoma ip, survival T/C. The experiment in a line: NCI In Vivo Anticancer Drug Screen. Data for tumor model Human Amelanotic Melanoma (LOX) (intraperitoneal) in NU/NU BALB/C (nude) mice. Conditions: endpoint: median survival time, higher = longer survival. As for the experimental part:
The antitumor activity of compounds was measured in mice bearing transplantable tumors. Survival or tumor size were measured and the results are expressed as the measurement made in the treated group (T) divided by the measurement made in the vehicle treated control group (C). The tumor model used in this assay is Human Amelanotic Melanoma (LOX) (intraperitoneal) in NU/NU BALB/C (nude) mice

Where [1] appears, read: dose: 150.0 mg/kg/injection, schedule: Q04DX003 (ip), vehicle: saline with Tween-80.
[2] abbreviates: dose: 300.0 mg/kg/injection, schedule: Q04DX003 (ip), vehicle: saline with Tween-80.
The mark [3] stands for this setting: dose: 100.0 mg/kg/injection, schedule: Q04DX003 (ip), vehicle: saline.
Where [4] appears, read: dose: 50.0 mg/kg/injection, schedule: Q04DX003 (ip), vehicle: saline with Tween-80.
The mark [5] stands for this setting: dose: 12.5 mg/kg/injection, schedule: Q04DX003 (ip), vehicle: saline with Tween-80.
Setting [6] is: dose: 100.0 mg/kg/injection, schedule: Q04DX003 (ip), vehicle: saline with Tween-80.
[7] abbreviates: dose: 75.0 mg/kg/injection, schedule: Q04DX003 (ip), vehicle: saline with Tween-80.

Structures are written as SMILES. Values joined by “and” are separate entries in the source; they are usually repeats but may differ in a detail not shown here. Identical values can stand only once. Inconclusive results and toxic doses are left out.

In the case of `[CH3][Sn]([CH3])([Cl])[c]1cc[c]([Sn]([CH3])([CH3])[Cl])cc1`, the T/C by setting is: (dose: 0.63 mg/kg/injection, schedule: Q04DX003 (ip), vehicle: saline) 91 % of control; (dose: 1.25 mg/kg/injection, schedule: Q04DX003 (ip), vehicle: saline) 103 % of control; (dose: 2.5 mg/kg/injection, schedule: Q04DX003 (ip), vehicle: saline) 98 % of control; (dose: 5.0 mg/kg/injection, schedule: Q04DX003 (ip), vehicle: saline) 107 % of control.
With `CCN(CC)c1ccc2[nH]c3c(C(N)=O)cc(=O)c(=O)c=3oc2c1`, the T/C under setting [1] is 110 % of control and the T/C under setting [2] was 96 % of control.
Take `Nc1ccn([C@@H](C=O)C[C@@H](C=O)CO)c(=O)n1`: the T/C was 105 % of control (dose: 18.75 mg/kg/injection, schedule: Q04DX003 (ip), vehicle: saline); 107 % of control (dose: 37.5 mg/kg/injection, schedule: Q04DX003 (ip), vehicle: saline); 103 % of control (dose: 75.0 mg/kg/injection, schedule: Q04DX003 (ip), vehicle: saline); 103 % of control (dose: 150.0 mg/kg/injection, schedule: Q04DX003 (ip), vehicle: saline); 102 % of control (dose: 300.0 mg/kg/injection, schedule: Q04DX003 (ip), vehicle: saline).
`CN1COc2c(n(C)c(=O)[nH]c2=O)C1`: the T/C was 96 % of control (dose: 50.0 mg/kg/injection, schedule: Q04DX003 (ip), vehicle: saline); 102 % of control (dose: 50.0 mg/kg/injection, schedule: Q04DX003 (ip), vehicle: suspension in saline); 91 % of control under setting [3]; 104 % of control (dose: 100.0 mg/kg/injection, schedule: Q04DX003 (ip), vehicle: suspension in saline); 104 % of control (dose: 200.0 mg/kg/injection, schedule: Q04DX003 (ip), vehicle: saline); 122 % of control (dose: 200.0 mg/kg/injection, schedule: Q04DX003 (ip), vehicle: suspension in saline). For the same compound, the T/C is, setting by setting: (dose: 400.0 mg/kg/injection, schedule: Q04DX003 (ip), vehicle: saline) 110 % of control; (dose: 400.0 mg/kg/injection, schedule: Q04DX003 (ip), vehicle: suspension in saline) 108 % of control; (dose: 800.0 mg/kg/injection, schedule: Q04DX003 (ip), vehicle: saline) 120 % of control; (dose: 800.0 mg/kg/injection, schedule: Q04DX003 (ip), vehicle: suspension in saline) 108 % of control.
On to `NC(=S)c1ncn(C2OC(COC=O)C(OC=O)C2OC=O)c1NC=O` (stereo unspecified), for which the T/C reads like this: under setting [4], 109 % of control; (dose: 200.0 mg/kg/injection, schedule: Q04DX003 (ip), vehicle: saline with Tween-80) 172 % of control; (dose: 400.0 mg/kg/injection, schedule: Q04DX003 (ip), vehicle: saline with Tween-80) 188 % of control.
Turning to `CCOC(=O)c1c[nH]c2ccc3c(nc(C)n3C)c2c1=O`, the T/C by setting is: (dose: 50.0 mg/kg/injection, schedule: Q04DX003 (ip), vehicle: Klucel (hydroxypropylcellulose) (HPC)) 100 % of control; (dose: 100.0 mg/kg/injection, schedule: Q04DX003 (ip), vehicle: Klucel (hydroxypropylcellulose) (HPC)) 104 % of control; (dose: 200.0 mg/kg/injection, schedule: Q04DX003 (ip), vehicle: Klucel (hydroxypropylcellulose) (HPC)) 93 % of control; (dose: 400.0 mg/kg/injection, schedule: Q04DX003 (ip), vehicle: Klucel (hydroxypropylcellulose) (HPC)) 100 % of control; (dose: 800.0 mg/kg/injection, schedule: Q04DX003 (ip), vehicle: Klucel (hydroxypropylcellulose) (HPC)) 94 % of control.
On to `CC[C@]1(O)C[C@H]2CN(CCc3c([nH]c4ccccc34)[C@@](C(=O)OC)(c3cc4c(cc3OC)N(C)[C@H]3[C@@](O)(C(=O)OC)[C@H](OC(C)=O)[C@]5(CC)C=CCN6CC[C@]43[C@@H]65)C2)C1`, for which the T/C by setting is: (dose: 0.44 mg/kg/injection, schedule: Q04DX003 (iv), vehicle: saline) 107 % of control; (dose: 0.67 mg/kg/injection, schedule: Q04DX003 (ip), vehicle: saline) 110 % of control and 203 % of control; (dose: 0.67 mg/kg/injection, schedule: Q04DX003 (iv), vehicle: saline) 112 % of control; (dose: 1.7 mg/kg/injection, schedule: Q04DX003 (ip), vehicle: saline) 123 % of control and 203 % of control; (dose: 1.7 mg/kg/injection, schedule: Q04DX003 (iv), vehicle: saline) 188 % of control.
For the compound `CC(=O)N(C)c1ccc(Nc2cc(C)[nH]c3ccc4ncnc4c23)cc1`, the T/C is 102 % of control under setting [5]; 101 % of control (dose: 36.0 mg/kg/injection, schedule: Q04DX003 (ip), vehicle: saline); 99 % of control under setting [4]; 110 % of control (dose: 60.0 mg/kg/injection, schedule: Q04DX003 (ip), vehicle: saline); 91 % of control under setting [6]; 100 % of control under setting [3]. For the same compound, for the setting “dose: 167.0 mg/kg/injection, schedule: Q04DX003 (ip), vehicle: saline”, the T/C was 94 % of control.
For the compound `O=c1[nH]cnc2c1nnn2C1OC(CO)C(O)C1O` (stereo unspecified), the T/C is 123 % of control (dose: 180.0 mg/kg/injection, schedule: Q04DX003 (ip), vehicle: suspension in saline) and 153 % of control (dose: 833.0 mg/kg/injection, schedule: Q04DX003 (ip), vehicle: suspension in saline).
On to `CN(C=O)C(C(=O)Nc1cccc2c(OC(=O)C(N(C)C=O)(N(C)C=O)N(C)C=O)c(N=Nc3ccc(S(=O)(=O)Nc4nccs4)cc3)cc(N=Nc3ccc(S(=O)(=O)Nc4nccs4)cc3)c12)(N(C)C=O)N(C)C=O` (tested in a mixture with another compound), for which the T/C reads like this: under setting [7], 101 % of control; under setting [1], 99 % of control; under setting [2], 89 % of control; (dose: 600.0 mg/kg/injection, schedule: Q04DX003 (ip), vehicle: saline with Tween-80) 95 % of control; (dose: 1200.0 mg/kg/injection, schedule: Q04DX003 (ip), vehicle: saline with Tween-80) 93 % of control.
As for `CCCCCCCCCCCCCCCCCCOCC(CO)OC` (stereo unspecified), the T/C is 150 % of control and 151 % of control under setting [1]; 160 % of control under setting [2].
On to `CC(=O)NC(CCc1ccc(Cl)c(Cl)c1)c1cccc(O)c(=O)c1` (stereo unspecified), for which the T/C runs as follows: (dose: 86.4 mg/kg/injection, schedule: Q04DX003 (ip), vehicle: Klucel (hydroxypropylcellulose) (HPC)) 98 % of control; (dose: 240.0 mg/kg/injection, schedule: Q04DX003 (ip), vehicle: Klucel (hydroxypropylcellulose) (HPC)) 109 % of control.
With `[CH3][Sn]([CH3])([Cl])[S]CCN`, the T/C was 101 % of control (dose: 6.25 mg/kg/injection, schedule: Q04DX003 (ip), vehicle: saline with Tween-80); 109 % of control under setting [5]; 105 % of control (dose: 25.0 mg/kg/injection, schedule: Q04DX003 (ip), vehicle: saline with Tween-80); 115 % of control under setting [4]; 103 % of control under setting [6].
With `CCCCNP1(NCCCC)=NP(NCCCC)(NCCCC)=NP(NCCCC)(NCCCC)=NP(NCCCC)(NCCCC)=N1`, the T/C reads like this: (dose: 32.4 mg/kg/injection, schedule: Q04DX003 (ip), vehicle: saline with Tween-80) 116 % of control; (dose: 54.0 mg/kg/injection, schedule: Q04DX003 (ip), vehicle: saline with Tween-80) 105 % of control and 98 % of control; under setting [7], 113 % of control; (dose: 90.0 mg/kg/injection, schedule: Q04DX003 (ip), vehicle: saline with Tween-80) 105 % of control and 120 % of control.

Values taken from PubChem BioAssay AID280 (DTP/NCI, 2004).
